Assay results reported in patent publication US11685733B2, “Compounds for treating Rac-GTPase mediated disorder” (Children's Medical Center Corporation, priority 2018, dated 2023).
“Also recorded” adds a separate entry of the source.

Tests used:
SEM cell line = assay: Flow based Annexin V apoptosis and cell death assay; parameters: species or system human; conditions: Annexin V kit
Text: Compound 1 was further analyzed for its effect on cell apoptosis and cell death using a flow based assay using Annexin V kit.

[1] = Relative weight of mice during the efficacy study; type: in vivo; conditions: 10 mg/kg and 100 mg/kg, normalized to average weight before treatment
Experimental: (§1) Bioluminecence imaging (BLI) analysis was performed by treating a mouse model (8 mice) of human leukemia (P12 xenograft) with two different doses of Compound 1 (i.e., 10 and 100 mg/kilogram of body weight) using the formulation obtained in Example 2. P12 cells were transduced with a vector encoding for Luciferase and mCherry as a fluorescent marker. Treatment was started 5 days after inoculation of the cell line, and carried out by oral gavage for 18 days twice a day. Mice were imaged twice a week to obtain a quantification of the disease burden.

[2] = test system: mononuclear bone marrow cells from WT mice; assay: Colony forming unit assay (CFU assay) for toxicity; type: cell-based
Experimental: The formulation obtained in Example 2 was used for evaluating the toxicity of Compound 1 in a colony forming unit assay (CFU assay), which was performed by plating mononuclear bone marrow cells from WT mice in methylcellulose media supplemented with different doses of Compound 1, NSC23766, and DMSO. The number of colonies formed in each condition was scored 7 days after plating.

[3] = test system: SEM, RS4,11, and P12 leukemia cell lines; assay: Inhibition of proliferation in three leukemia cell lines; type: cell-based; conditions: Homo sapiens; range over SEM, RS4,11 and P12 cell lines
Experimental: Compound 1 was assayed for inhibition of proliferation in three leukemia cell lines, i.e., (1) SEM, (2) RS4,11, and (3) P12 by […]. The cells for the proliferation assay were spun down and re-suspended. The cell suspension was then divided and Compound 1 was added in desired concentrations and subsequently plated. Following an incubation period, the […] (Promega CellTiter 96® Aqueous Non-Radioactive Cell Proliferation Assay) was added and allowed to incubate. The absorbance is subsequently measured at 490 nm using a plate reader.

Rac = assay: Pull down assay of Rac activation with Western blot; type: cell-based, human; conditions: SEM cell line
Experimental: Further, a biochemical pull down assay using the SEM cell line was performed to confirm specific inhibition of Rac activation by Compound 1 as indicated by disruption of the interaction between Rac and GTPase. The assay initially required treatment of cells followed by pull down and analysis with Western blot. The cells were first starved in serum free media for 2 hours. They were then re-suspended in serum-containing medium. NSC23766 and Compound 1 were added at desired concentrations. Following incubation for the desired length of time, the cells were pelleted and lysed with Magnesium Lysis Buffer (Millipore Mg^2+ lysis/wash buffer).

P12 xenograft = assay: Anti-leukemia activity in mouse model of human leukemia (bioluminescence imaging, mCherry cells in bone marrow); type: in vivo, mice; conditions: 10 mg/kg and 100 mg/kg
Experimental: as §1

[4] = test system: P12 cells with NRAS G12D mutation
[5] = test system: sensitive leukemic cell lines; assay: Induction of apoptosis in leukemic cell lines

Structure (SMILES) | cell apoptosis and cell death (SEM cell line) | relative weight of the mice [1] | concentration up to which no toxicity toward clonogenic progenitor bone marrow cells was seen ([2]; colonies scored 7 days after plating) | concentration without toxicity relative to the IC50 ([2]; fold the IC50) | IC50 [3] | total Rac levels (Rac) | Rac activation (Rac; pull down) | mCherry positive cells in the bone marrow (P12 xenograft; fold change to the vehicle group) | bioluminescence (disease burden) (P12 xenograft; oral gavage twice a day for 18 days) | PDE6D/ARL2/3-dependent trafficking of RAS [4] | apoptosis [5]
O=C(CCc1nnc(CCc2c[nH]c3ccccc23)o1)N1CCN(c2ccc(F)cc2)CC1 [Compound 1, 1-[4-(4-fluorophenyl)piperazin-1-yl]-3-{5-[2-(1H-indol-3-yl)ethyl]-1,3,4-oxadiazol-2-yl}propan-1-one] | caused cells apoptosis and cell death in the SEM cell line in a dose-dependent manner | relatively stable over the course of treatment | ~100 µM | > 100 fold | 0.8 to 7 µM | no significant effect on total Rac levels | significant reduction of Rac activation; also recorded: dose dependent reduction of Rac activation | effectively inhibit proliferation | significantly reduced the bioluminescence |  | 
CCc1ccc(CN(C)C(=O)CCc2nnc(CCc3c[nH]c4ccccc34)o2)cc1 [Compound 5] |  |  |  |  |  |  |  |  |  | affected PDE6D/ARL2/3-dependent trafficking of RAS | induced apoptosis
